Laboratory results taken from patent publication US9121007B2, “Treatment of bone-related cancers using placental stem cells” (ANTHROGENESIS CORPORATIN, priority 2010, dated 2015).

Tested on: osteoclast precursors
Experiment: Osteoclastogenesis from osteoclast precursors with lenalidomide
Type: cell-based
Experimental: FIG. 15. Therefore, there is a possible synergistic or additive anti-osteoclastogenic effect of PDACs and lenalidomide at concentration of between about 0.1 μM to 1 μM.

Nc1cccc2c1CN(C1CCC(=O)NC1=O)C2=O (centres unmarked) [lenalidomide, 3-(4-amino-1-oxo 1,3-dihydro-2H-isoindol-2-yl) piperidine-2,6-dione]
number of osteoclasts that differentiated from the osteoclast precursors (0.1 μM or 1 μM lenalidomide with placental stem cells, vs placental stem cells or BM-MSC): further decrease the number of osteoclasts | number of osteoclasts formed (lenalidomide alone at concentrations around 1 μM): steep decline in the number of osteoclasts formed
